Results on seven compounds are retold here after patent US4217446A, “ωAmino-2-hydroxyalkyl derivatives of aminoglycoside antibiotics” (Pfizer Inc., priority 1974, dated 1980).

One may read the MIC as the lowest concentration that inhibits growth of the organism.

One assay relates to Escherichia coli. Description: in vitro antibacterial activity, minimum inhibitory concentration (M.I.C.), agar plates. Format: cell-based. As to conditions: 24 hours at 37° C., read-out: MIC Esch. coli. Here is the method: (§1) The in vitro evaluation of the compounds of the invention as antibacterial agents has been performed by determining the minimum inhibitory concentration (M.I.C.) of the test compound in a suitable medium at which growth of the particular micro-organism fails to occur. In practice, agar plates, each having incorporated therein the test compound at a particular concentration are inoculated with a standard number of cells of the test micro-organism and each plate is then incubated for 24 hours at 37° C. The plates are then observed for the presence or absence of the growth of bacteria and the appropriate M.I.C. value noted. Micro-organisms used in such tests having included strains of Escherichia coli, Klebsiella pneumoniae, Proteus mirabilis, Pseudomonas aeruginosa, Staphylococcus aureus and Streptococcus faecalis. Results of the testing of several of the compounds of this invention for their in vitro antibacterial activity, by the method described hereinbefore, are presented in Table I.

The test system of the next assay is Pseudomonas aeruginosa. The assay is described as above. It is filed as cell-based. As to conditions: 24 hours at 37° C., read-out: MIC Pseud. aeruginosa. Here is the method:
as §1

A further assay relates to Proteus mirabilis. Described as above. It is filed as cell-based. The following applies: 24 hours at 37° C. How it is done: as §1
The next assay relates to Staphylococcus aureus. The description is as above. It is filed as cell-based. As to conditions: 24 hours at 37° C., read-out: MIC Staph. aureus. Here is the method: as §1
For another assay, the system named is Klebsiella pneumoniae. The assay is described as above. It is filed as cell-based. As to conditions: 24 hours at 37° C., read-out: MIC Kleb. pneumoniae. How it is done: as §1
In the next assay the test system is E. coli. Description: in vivo antibacterial activity against E. coli in mice, 50% protection against lethal effect. The following applies: Escherichia coli, sc, subcutaneous, 50% protection over 72 hours, read-out: PD50. How it is done:
Each compound is administered at a series of dosage levels to groups of mice and its activity is determined as the level at which it gives 50% protection, against the lethal effect of the Escherichia coli organism over a period of 72 hours.
The in vivo antibacterial activity of 1-N-[(S)-4-amino-2-hydroxybutyl]kanamycin A against E. coli in mice has been measured.

In brackets after ≈: the same amount, converted by molar mass.

For the compound `NCC[C@H](O)CN[C@@H]1C[C@H](N)[C@@H](O[C@H]2O[C@H](CN)[C@@H](O)[C@H](O)[C@H]2N)[C@H](O)[C@H]1O[C@H]1O[C@H](CO)[C@@H](O)[C@H](N)[C@H]1O` [1-N-[(S)-4-Amino-2-hydroxybutyl]kanamycin B], the MIC in the assay on Escherichia coli worked out at 3.1 µg/mL (≈ 5.43 µM); with Pseudomonas aeruginosa, 0.8 µg/mL (≈ 1.4 µM); in the assay on Proteus mirabilis it was 6.2 µg/mL (≈ 10.9 µM); with Staphylococcus aureus, 1.6 µg/mL (≈ 2.8 µM); with Klebsiella pneumoniae, 1.6 µg/mL (≈ 2.8 µM).

Turning to `NCCCC[C@H](O)CN[C@@H]1C[C@H](N)[C@@H](O[C@H]2O[C@H](CN)[C@@H](O)[C@H](O)[C@H]2O)[C@H](O)[C@H]1O[C@H]1O[C@H](CO)[C@@H](O)[C@H](N)[C@H]1O` [1-N-[(S)-6-Amino-2-hydroxyhexyl]-kanamycin A], the MIC is 6.2 µg/mL (≈ 10.3 µM) with Escherichia coli; 3.1 µg/mL (≈ 5.17 µM) in the assay with Pseudomonas aeruginosa; 3.1 µg/mL (≈ 5.17 µM) with Proteus mirabilis; 1.6 µg/mL (≈ 2.67 µM) in the assay on Staphylococcus aureus; 6.2 µg/mL (≈ 10.3 µM) with Klebsiella pneumoniae.

For the compound `NCC[C@H](O)CN[C@@H]1C[C@H](N)[C@@H](O[C@H]2O[C@H](CN)[C@@H](O)[C@H](O)[C@H]2N)[C@H](O[C@@H]2O[C@H](CO)[C@@H](O)[C@H]2O)[C@H]1O` [1-N-[(S)-4-Amino-2-hydroxybutyl]ribostamycin], the MIC was 6.2 µg/mL (≈ 11.4 µM) in the assay with Escherichia coli; 12.5 µg/mL (≈ 23.1 µM) in the assay on Pseudomonas aeruginosa; 25 µg/mL (≈ 46.2 µM) in the assay with Proteus mirabilis; 12.5 µg/mL (≈ 23.1 µM) in the assay with Staphylococcus aureus; 6.2 µg/mL (≈ 11.4 µM) with Klebsiella pneumoniae.

For the compound `NCC(O)CN[C@@H]1C[C@H](N)[C@@H](O[C@H]2O[C@H](CN)[C@@H](O)[C@H](O)[C@H]2O)[C@H](O)[C@H]1O[C@H]1O[C@H](CO)[C@@H](O)[C@H](N)[C@H]1O` (stereo partly drawn) [1-N-[3-amino-2-hydroxypropyl]kanamycin, 1-N-[3-Amino-2-hydroxpropyl]kanamycin A], the MIC stood at 12.5 µg/mL (≈ 22.4 µM) in the assay with Escherichia coli; 3.1 µg/mL (≈ 5.56 µM) in the assay on Pseudomonas aeruginosa; 12.5 µg/mL (≈ 22.4 µM) in the assay on Proteus mirabilis; 3.1 µg/mL (≈ 5.56 µM) in the assay with Staphylococcus aureus; 6.2 µg/mL (≈ 11.1 µM) in the assay with Klebsiella pneumoniae.

As for `NCCC[C@H](O)CN[C@@H]1C[C@H](N)[C@@H](O[C@H]2O[C@H](CN)[C@@H](O)[C@H](O)[C@H]2O)[C@H](O)[C@H]1O[C@H]1O[C@H](CO)[C@@H](O)[C@H](N)[C@H]1O` [1-N-[(S)-5-Amino-2-hydroxypentyl]kanamycin A], the MIC stood at 6.2 µg/mL (≈ 10.6 µM) with Escherichia coli; 3.1 µg/mL (≈ 5.29 µM) in the assay on Pseudomonas aeruginosa; 12.5 µg/mL (≈ 21.3 µM) in the assay with Proteus mirabilis; 1.6 µg/mL (≈ 2.73 µM) in the assay with Staphylococcus aureus; 3.1 µg/mL (≈ 5.29 µM) with Klebsiella pneumoniae.

Take `CNC[C@H]1O[C@H](O[C@H]2[C@H](O)[C@@H](O[C@H]3O[C@H](CO)[C@@H](O)[C@H](N)[C@H]3O)[C@H](NC[C@@H](O)CCN)C[C@@H]2N)[C@H](O)[C@@H](O)[C@@H]1O` [6'-N-Methyl-1-N-[(S)-4-amino-2-hydroxybutyl]kanamycin A]: the MIC was 6.2 µg/mL (≈ 10.6 µM) in the assay with Escherichia coli; 3.1 µg/mL (≈ 5.29 µM) in the assay with Pseudomonas aeruginosa; 6.2 µg/mL (≈ 10.6 µM) against Proteus mirabilis; 3.1 µg/mL (≈ 5.29 µM) with Staphylococcus aureus; 3.1 µg/mL (≈ 5.29 µM) in the assay on Klebsiella pneumoniae.

With `NCC[C@H](O)CN[C@@H]1C[C@H](N)[C@@H](O[C@H]2O[C@H](CN)[C@@H](O)[C@H](O)[C@H]2O)[C@H](O)[C@H]1O[C@H]1O[C@H](CO)[C@@H](O)[C@H](N)[C@H]1O` [1-N-[(S)-4-Amino-2-hydroxybutyl]kanamycin A], the MIC in the assay with Escherichia coli amounted to 6.2 µg/mL (≈ 10.8 µM); in the assay on Pseudomonas aeruginosa, 1.6 µg/mL (≈ 2.8 µM); in the assay with Proteus mirabilis it was 3.1 µg/mL (≈ 5.42 µM); in the assay with Staphylococcus aureus it was 1.6 µg/mL (≈ 2.8 µM); in the assay on Klebsiella pneumoniae it was 3.1 µg/mL (≈ 5.42 µM). Moreover, the ED50 in the assay on E. coli came out at 3.8 mg/kg.
